Test results reported in PubChem BioAssay AID248 (DTP/NCI, 2004).
“And” between values parts separate entries of the source, which are not always exact repeats. Identical values can stand only once. Inconclusive results and toxic doses are left out.

System: L1210 leukemia ip in BDF1 mice, survival T/C
Experiment: NCI In Vivo Anticancer Drug Screen. Data for tumor model L1210 Leukemia (intraperitoneal) in B6D2F1 (BDF1) mice
Conditions: endpoint: mean survival time, higher = longer survival
Summary of the method: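 Transplantable tumor model; survival measured in treated vs vehicle control mice. Value = treated/control.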

[1] = dose: 25.0 mg/kg/injection, schedule: Q01DX001 (ip), vehicle: saline
[2] = dose: 50.0 mg/kg/injection, schedule: Q01DX001 (ip), vehicle: saline
[3] = dose: 100.0 mg/kg/injection, schedule: Q01DX001 (ip), vehicle: saline
[4] = dose: 200.0 mg/kg/injection, schedule: Q01DX001 (ip), vehicle: saline
[5] = dose: 100.0 mg/kg/injection, schedule: Q04DX003 (ip), vehicle: Klucel (hydroxypropylcellulose) (HPC)
[6] = dose: 200.0 mg/kg/injection, schedule: Q04DX003 (ip), vehicle: Klucel (hydroxypropylcellulose) (HPC)
[7] = dose: 400.0 mg/kg/injection, schedule: Q04DX003 (ip), vehicle: Klucel (hydroxypropylcellulose) (HPC)
[8] = dose: 100.0 mg/kg/injection, schedule: Q01DX009 (ip), vehicle: saline with Tween-80
[9] = dose: 100.0 mg/kg/injection, schedule: Q04DX003 (ip), vehicle: saline with Tween-80
[10] = dose: 200.0 mg/kg/injection, schedule: Q01DX009 (ip), vehicle: saline with Tween-80
[11] = dose: 200.0 mg/kg/injection, schedule: Q04DX003 (ip), vehicle: saline with Tween-80
[12] = dose: 400.0 mg/kg/injection, schedule: Q01DX009 (ip), vehicle: saline with Tween-80
[13] = dose: 400.0 mg/kg/injection, schedule: Q04DX003 (ip), vehicle: saline with Tween-80
[14] = dose: 50.0 mg/kg/injection, schedule: Q01DX009 (ip), vehicle: Klucel (hydroxypropylcellulose) (HPC)
[15] = dose: 400.0 mg/kg/injection, schedule: Q01DX001 (ip), vehicle: saline
[16] = dose: 12.5 mg/kg/injection, schedule: Q01DX009 (ip), vehicle: saline
[17] = dose: 25.0 mg/kg/injection, schedule: Q01DX009 (ip), vehicle: saline
[18] = dose: 100.0 mg/kg/injection, schedule: Q04DX003 (ip), vehicle: saline
[19] = dose: 200.0 mg/kg/injection, schedule: Q04DX003 (ip), vehicle: saline
[20] = dose: 400.0 mg/kg/injection, schedule: Q04DX003 (ip), vehicle: saline
[21] = dose: 50.0 mg/kg/injection, schedule: Q01DX009 (ip), vehicle: saline
[22] = dose: 100.0 mg/kg/injection, schedule: Q01DX009 (ip), vehicle: saline

In the case of CC(=O)NCCSC(=O)C(=O)SCCNC(C)=O, the T/C [1] was 115 % of control, the T/C (dose: 25.0 mg/kg/injection, schedule: Q01DX Z (ip), vehicle: saline) was 102 % of control and the T/C [2] was 102 % of control. The T/C (dose: 50.0 mg/kg/injection, schedule: Q01DX Z (ip), vehicle: saline) was 96 % of control, the T/C [3] was 102 % of control and the T/C (dose: 100.0 mg/kg/injection, schedule: Q01DX Z (ip), vehicle: saline) was 96 % of control. The T/C [4] was 94 % of control and 96 % of control and 104 % of control and the T/C (dose: 450.0 mg/kg/injection, schedule: Q01DX001 (ip), vehicle: saline) was 86 % of control.
In the case of CC(=O)c1ccc(OS(=O)(=O)c2ccc([N+](=O)[O-])cc2)cc1, the T/C (dose: 100.0 mg/kg/injection, schedule: Q01DX009 (ip), vehicle: Klucel (hydroxypropylcellulose) (HPC)) was 90 % of control, the T/C [5] was 94 % of control and the T/C (dose: 200.0 mg/kg/injection, schedule: Q01DX009 (ip), vehicle: Klucel (hydroxypropylcellulose) (HPC)) was 90 % of control. For the same molecule, the T/C [6] was 94 % of control, the T/C (dose: 400.0 mg/kg/injection, schedule: Q01DX009 (ip), vehicle: Klucel (hydroxypropylcellulose) (HPC)) was 86 % of control and the T/C [7] was 89 % of control.
For O=S(=O)(Nc1ccc(Br)cc1)c1ccccc1, the T/C [8] was 99 % of control, the T/C [9] was 105 % of control and the T/C [10] was 87 % of control. The T/C [11] was 100 % of control, the T/C [12] was 95 % of control and the T/C [13] was 98 % of control.
For CCOC(=O)C(Cc1ccc(Cl)c(Cl)c1)(Cc1ccc(Cl)c(Cl)c1)C(=O)OCC, the T/C [8] was 104 % of control, the T/C [9] was 88 % of control and the T/C [10] was 97 % of control. The T/C [11] was 89 % of control, the T/C [12] was 95 % of control and the T/C [13] was 105 % of control.
For CCOC(=N)CC(O)C(Cl)(Cl)Cl (centres undefined), the T/C (dose: 100.0 mg/kg/injection, schedule: Q04DX002 (ip), vehicle: saline with Tween-80) was 99 % of control, the T/C (dose: 200.0 mg/kg/injection, schedule: Q04DX002 (ip), vehicle: saline with Tween-80) was 103 % of control and the T/C (dose: 400.0 mg/kg/injection, schedule: Q04DX002 (ip), vehicle: saline with Tween-80) was 92 % of control.
For Cc1ccccc1CN1CCN(CCOC(c2ccccc2)c2ccccc2Cl)CC1 (centres undefined), the T/C (dose: 12.5 mg/kg/injection, schedule: Q01DX009 (ip), vehicle: Klucel (hydroxypropylcellulose) (HPC)) was 97 % of control, the T/C (dose: 25.0 mg/kg/injection, schedule: Q01DX009 (ip), vehicle: Klucel (hydroxypropylcellulose) (HPC)) was 97 % of control and the T/C (dose: 25.0 mg/kg/injection, schedule: Q04DX003 (ip), vehicle: Klucel (hydroxypropylcellulose) (HPC)) was 107 % of control. The T/C [14] was 102 % of control, the T/C (dose: 50.0 mg/kg/injection, schedule: Q04DX003 (ip), vehicle: Klucel (hydroxypropylcellulose) (HPC)) was 100 % of control and the T/C [5] was 105 % of control. The T/C [6] was 100 % of control.
With CCC(=O)C(c1ccccc1)(c1ccccc1)c1ccccc1 the T/C (dose: 100.0 mg/kg/injection, schedule: Q04DX002 (ip), vehicle: other) was 95 % of control and the T/C (dose: 200.0 mg/kg/injection, schedule: Q04DX002 (ip), vehicle: other) was 100 % of control.
C=C1C[C@]23C[C@@]1(O)CC[C@H]2[C@@]12C=C[C@H](O)[C@@](C)(C(=O)O1)[C@H]2[C@@H]3C(=O)O was tested, and the T/C (dose: 100.0 mg/kg/injection, schedule: Q01DX001 (ip), vehicle: carboxymethylcellulose (CMC)) was 94 % of control, the T/C [3] was 104 % of control and the T/C (dose: 100.0 mg/kg/injection, schedule: Q01DX009 (ip), vehicle: acetone) was 97 % of control. The T/C (dose: 200.0 mg/kg/injection, schedule: Q01DX001 (ip), vehicle: carboxymethylcellulose (CMC)) was 96 % of control, the T/C [4] was 104 % of control and the T/C (dose: 200.0 mg/kg/injection, schedule: Q01DX009 (ip), vehicle: acetone) was 94 % of control. For the same molecule, the T/C (dose: 400.0 mg/kg/injection, schedule: Q01DX001 (ip), vehicle: carboxymethylcellulose (CMC)) was 94 % of control, the T/C [15] was 104 % of control and the T/C (dose: 400.0 mg/kg/injection, schedule: Q01DX009 (ip), vehicle: acetone) was 95 % of control. The T/C (dose: 800.0 mg/kg/injection, schedule: Q01DX009 (ip), vehicle: acetone) was 92 % of control.
For NC(=O)C(N)Cc1ccc(OCc2ccccc2)c(OCc2ccccc2)c1 (centres undefined), the T/C (dose: 100.0 mg/kg/injection, schedule: Q01DX001 (ip), vehicle: saline with Tween-80) was 92 % of control, the T/C [8] was 101 % of control and the T/C (dose: 200.0 mg/kg/injection, schedule: Q01DX001 (ip), vehicle: saline with Tween-80) was 94 % of control. The T/C [10] was 95 % of control and the T/C (dose: 400.0 mg/kg/injection, schedule: Q01DX001 (ip), vehicle: saline with Tween-80) was 86 % of control.
In the case of CCCCS(=O)(=O)Nc1ccc(Nc2c3ccccc3nc3ccccc23)c(OC)c1, the T/C [16] was 150 % of control, the T/C [17] was 153 % of control and the T/C [14] was 154 % of control.
N#CC(C(=O)c1ccccc1)=C([SH2+])[SH2+].N#CC(C(=O)c1ccccc1)=C([SH2+])[SH2+].[Cu+2].c1ccc([AsH](c2ccccc2)(c2ccccc2)c2ccccc2)cc1 was tested, and the T/C [3] was 103 % of control, the T/C [18] was 100 % of control and the T/C [4] was 105 % of control. The T/C [19] was 96 % of control, the T/C [15] was 98 % of control and the T/C [20] was 98 % of control.
For N#CC1=C(C#N)C(=O)C(Cl)=C(Cl)C1=O, the T/C (dose: 6.25 mg/kg/injection, schedule: Q01DX009 (ip), vehicle: saline) was 98 % of control, the T/C [16] was 102 % of control and the T/C (dose: 12.5 mg/kg/injection, schedule: Q04DX003 (ip), vehicle: saline sonified) was 104 % of control. For the same molecule, the T/C (dose: 25.0 mg/kg/injection, schedule: Q04DX003 (ip), vehicle: saline sonified) was 93 % of control.
With CC1(C)N=C(N)N=C(N)N1c1ccc(CCCCc2ccc(S(=O)(=O)F)cc2)cc1 the T/C [21] was 113 % of control and the T/C [22] was 106 % of control.
CCNc1nc(Cl)nc(NCC)n1 was tested, and the T/C (dose: 100.0 mg/kg/injection, schedule: Q01DX009 (ip), vehicle: saline sonified) was 98 % of control, the T/C [8] was 95 % of control and the T/C [5] was 94 % of control and 103 % of control. For the same molecule, the T/C (dose: 200.0 mg/kg/injection, schedule: Q01DX009 (ip), vehicle: saline sonified) was 98 % of control, the T/C [10] was 94 % of control and the T/C [6] was 94 % of control and 103 % of control. The T/C (dose: 400.0 mg/kg/injection, schedule: Q01DX009 (ip), vehicle: saline sonified) was 96 % of control, the T/C [12] was 100 % of control and the T/C [7] was 102 % of control and 103 % of control.
With O=S(=O)(CCO)CCS(=O)(=O)CCO the T/C (dose: 75.0 mg/kg/injection, schedule: Q01DX009 (ip), vehicle: carboxymethylcellulose (CMC)) was 92 % of control, the T/C (dose: 150.0 mg/kg/injection, schedule: Q01DX009 (ip), vehicle: carboxymethylcellulose (CMC)) was 102 % of control and the T/C (dose: 300.0 mg/kg/injection, schedule: Q01DX009 (ip), vehicle: carboxymethylcellulose (CMC)) was 92 % of control.
For O=c1cccc(CCCCCCc2cccc(=O)[nH]2)[nH]1, the T/C [3] was 106 % of control, the T/C [4] was 95 % of control and the T/C [15] was 96 % of control.
For COc1ccc2c(c1)c(C)cc[n+]2C, the T/C (dose: 12.5 mg/kg/injection, schedule: Q01DX001 (ip), vehicle: saline) was 108 % of control, the T/C [16] was 109 % of control and the T/C [1] was 110 % of control. For the same molecule, the T/C [17] was 107 % of control, the T/C [2] was 110 % of control and the T/C [21] was 124 % of control.
In the case of CN(C)c1ccc2c(c1)Cc1cc(NC(=O)/C=C/C(=O)O)ccc1-2, the T/C [18] was 112 % of control, the T/C [19] was 93 % of control and the T/C [20] was 91 % of control.
For Cn1cnc2cc(Cl)ccc21, the T/C [21] was 101 % of control, the T/C [22] was 104 % of control and the T/C (dose: 200.0 mg/kg/injection, schedule: Q01DX009 (ip), vehicle: saline) was 97 % of control.
In the case of NC(N)=N/N=C/CN1C(=O)c2ccccc2C1=O, the T/C (dose: 60.0 mg/kg/injection, schedule: Q01DX Z (oral), vehicle: methylcellulose (MC)) was 104 % of control, the T/C (dose: 120.0 mg/kg/injection, schedule: Q01DX Z (oral), vehicle: methylcellulose (MC)) was 94 % of control and the T/C (dose: 240.0 mg/kg/injection, schedule: Q01DX Z (oral), vehicle: methylcellulose (MC)) was 109 % of control. For the same molecule, the T/C (dose: 480.0 mg/kg/injection, schedule: Q01DX Z (oral), vehicle: methylcellulose (MC)) was 98 % of control.
